Tests used:
HCT116 (CRC) = experiment: Anti-proliferative activity assay (WST-8), HCT116; format: cell-based, human; conditions: HCT116 colorectal cancer cells, 4 days incubation
Method: (§1) The Antiproliferative activity assay was carried out as follows. A single suspension of tumor cells was inoculated to the serially diluted 96-well microtestplate. Then the testplate was incubated in the 5% CO2 ambience at 37° C. for 4 days (2-3×10^3 cells/well). The degree of cell growth in a monolayer was measured by using WST-8 (Dojindo, Japan). IC50 values of drugs against tumor cells were calculated as the concentration of drug yielding 50% OD of the control growth. The IC50 value measures the drug concentration for 50% of the growth of tumor cells in vitro as compared to the control.
(§2) Anti-tumor activities of hexacyclic compounds of formula [1] against in vitro growth of human tumor cell lines, HCT116 and DLD-1 of colorectal cancer (CRC) and QG56 and NCI-H460 of non small cell lung cancer (NSCLC) are shown in Table 1. These cell lines are commercially available via the American Type Culture Collection (ATTC).

NCI-H460 (NSCLC) = experiment: Anti-proliferative activity assay (WST-8), NCI-H460; format: cell-based, human; conditions: NCI-H460 non small cell lung cancer cells, 4 days incubation
Method: as §1, §2

DLD-1 (CRC) = experiment: Anti-proliferative activity assay (WST-8), DLD-1; format: cell-based, human; conditions: DLD-1 colorectal cancer cells, 4 days incubation
Method: as §1, §2

QG56 (NSCLC) = experiment: Anti-proliferative activity assay (WST-8), QG56; format: cell-based, human; conditions: QG56 non small cell lung cancer cells, 4 days incubation
Method: as §1, §2

[1] = converted to the inactive carboxylate form; cited from earlier work

With CCc1c2c(nc3ccc(O)cc13)-c1cc3c(c(=O)n1C2)COC(=O)[C@]3(O)CC [SN-38, 7-ethyl-10-hydroxycamptothecin] the IC50 (HCT116 (CRC)) was 0.0069 µM, the IC50 (NCI-H460 (NSCLC)) was 0.021 µM and the IC50 (DLD-1 (CRC)) was 0.053 µM. For the same compound, the IC50 (QG56 (NSCLC)) was 0.027 µM.
For CC[C@@]1(O)C(=O)OCc2c1cc1n(c2=O)Cc2cc3ccccc3nc2-1 [camptothecin], the half-life in plasma [1] is given as “less than 30 min”.
